{"source": "paper PMC12837517", "about": "“Valorization of Onion-Processing Waste: Digestive Fate, Bioavailability, and Cellular Antioxidant Properties of Red and Yellow Peels Polyphenols” (Antioxidants, 2025)", "key": {"Caco-2 cell monolayer [1]": {"system": "Caco-2 cell monolayer", "assay": "Transport of polyphenols across differentiated Caco-2 monolayers (apical stability, basolateral bioavailability, Papp)", "experimental": "(§1) To determine how effectively specific polyphenols might be absorbed through the human intestine, an in vitro assay was conducted utilizing the Caco-2 cell line, which, when fully differentiated, mimics the human intestinal barrier, as described by D’Antuono et al. [16]. […] The cells were maintained for 21 days in a standard culture condition to ensure complete differentiation into a tight monolayer. The medium in both the apical and basolateral compartments was refreshed twice weekly.\n(§2) The development of a robust epithelial barrier was confirmed by measuring the Transepithelial Electrical Resistance (TEER) using a volt–ohm meter. […] Prior to the experiment, the monolayers were rinsed with a pH 5.5 PBS. The apical chamber then received 2 mL of phenol red-free DMEM containing hydroalcoholic extracts from red and yellow onion peels, adjusted to a final total polyphenol concentration of 60 μg/mL and 30 μg/mL, respectively. The system was incubated at 37 °C, and samples from both the apical and basolateral chambers were collected for 30, 60, 90, and 120 min to track the time-dependent flux of the compounds. These samples were flash-frozen at −80 °C pending High-Performance Liquid Chromatography (HPLC) analysis.\n(§3) For the assessment of polyphenol accumulation within the Caco-2 cells, the monolayers were first subjected to a sequential wash with PBS pH 5.5, and then with a solution of 0.1% fatty acid-free bovine albumin in PBS pH 5.5. The cells were then mechanically harvested into 1 mL of cold PBS pH 5.5 and stored at −80 °C under a nitrogen atmosphere. […] Polyphenols were chemically isolated from the sonicated Caco-2 cells and the basolateral solutions via a liquid–liquid extraction technique, employing ethyl acetate EtOAc stabilized with 0.01% butylated hydroxytoluene (BHT). This extraction was repeated three times, and the pooled organic layers were dried under vacuum before being dissolved in 200 μL mobile phase for HPLC analysis."}, "[2]": {"assay": "Transport of polyphenols across differentiated Caco-2 monolayers (apical stability, basolateral bioavailability, Papp)", "conditions": "human, Caco-2", "experimental": "as §1, §2, §3"}, "Caco-2 cells": {"system": "Caco-2 cells", "assay": "Polyphenol accumulation within Caco-2 cells (uptake)", "format": "in vitro ADME, human", "experimental": "as §1, §2, §3"}, "[3]": {"assay": "Two-step in vitro gastrointestinal digestion, digestive stability of polyphenols", "format": "in vitro ADME", "conditions": "for Digestive Stability (%) Gastric %: after gastric phase (pepsin, pH 2.5, 37 °C, 1 h); for Digestive Stability (%) Intestinal %: after small intestinal phase (pH 6.5, 37 °C, 2 h)", "protocol": "The digestive stability of polyphenols was assessed using a two-step in vitro gastrointestinal digestion model, as described by Cardinali et al.. Aliquots (3 mL) of aqueous onion peel extracts (500 μg/mL total polyphenols, determined by HPLC-DAD) were diluted with 4.5 mL of 0.9% NaCl at pH 7. The gastric phase was initiated with addition of 0.9 mL of porcine pepsin solution (40 mg/mL) in 0.1 N HCl and adjustment of pH to 2.5 ± 0.1 with 1 N HCl. Samples were incubated at 37 °C for 1 h. Following gastric digestion, the small intestinal phase was initiated by adjusting the pH of gastric digesta to 5.3 with 100 mM NaHCO3 and 1 N NaOH, followed by the addition of 2.7 mL of small intestinal enzyme solution (lipase 2 mg/mL, pancreatin 4 mg/mL, and bile 24 mg/mL in 100 mM NaHCO3). The final sample pH was adjusted to 6.5 ± 0.1 with 1 N NaOH, the volume was standardized to 15 mL with saline solution (0.9% NaCl), and the sample was incubated at 37 °C for 2 h. After both digestion steps (gastric and small intestinal), the samples were collected and centrifuged (10,000× g, 1 h, 4 °C), filtered (0.45 μm), and then analyzed by HPLC-DAD. Digestive stability (%) was calculated by comparing pre- and post-digestion polyphenol content."}, "Caco-2 cell monolayer [4]": {"system": "Caco-2 cell monolayer", "experimental": "as §1, §2, §3"}, "[5]": {"parameters": "method as in PMID 34388527", "conditions": "at room temperature; cited from earlier work"}, "[6]": {"conditions": "yellow onion peels extract, 30-120 min"}, "[7]": {"conditions": "yellow onion peels extract, 30 min (maximum)"}, "[8]": {"conditions": "red onion peels “Rossa di Tropea” extract"}, "[9]": {"conditions": "yellow onion peels “Recas” extract"}, "[10]": {"conditions": "yellow onion peels “Recas” extract, listed as quercetin aglycone"}}, "note": "Where two headings read alike, the source gives them in different places. Marks after values point to notes of the source that are not given here."}
{"smiles": "OC[C@H]1O[C@@H](Oc2cc3c(O)cc(O)cc3[o+]c2-c2ccc(O)c(O)c2)[C@H](O)[C@@H](O)[C@@H]1O", "note": "[Cyanidin 3-glucoside]", "values": [{"measurement": "Papp (apical-to-basolateral)", "setting": "Caco-2 cell monolayer [1]; red onion peels extract", "result": 5.1, "unit": "×10⁻⁶ cm/s"}, {"measurement": "detection in basolateral compartment", "setting": "Caco-2 cell monolayer [1]; red onion peels extract, 30-120 min", "result": "present in the basolateral side at 60 and 120 min"}]}
{"smiles": "O=C(O)c1ccc(O)c(O)c1", "note": "[Protocatechuic acid]", "values": [{"measurement": "stability in apical culture medium over time", "setting": "Caco-2 cell monolayer [1]; [6]", "result": "consistent stability"}, {"measurement": "Papp A→B at 120 min, 30 µg/mL total polyphenols", "setting": "[2]", "result": 8.4, "unit": "×10⁻⁶ cm/s"}, {"measurement": "bioavailability at 90 min, 30 µg/mL total polyphenols", "setting": "[2]", "result": 6.8, "unit": "%"}, {"measurement": "bioavailability at 120 min, 30 µg/mL total polyphenols", "setting": "[2]", "result": 7.7, "unit": "%"}, {"measurement": "cellular accumulation", "setting": "Caco-2 cells; red onion peels extract, 30 min", "result": 0.013, "unit": "ng/µg protein"}, {"measurement": "cellular accumulation", "setting": "Caco-2 cells; [7]", "result": 0.050, "unit": "ng/µg protein"}, {"measurement": "recovery", "setting": "[3]; in both onion varieties, phase not specified, read-out: recovery after digestion", "result": "> 100", "unit": "%"}, {"measurement": "Digestive Stability (%) Gastric %", "setting": "[3]; [8]", "result": ">100.00", "unit": "%"}, {"measurement": "Digestive Stability (%) Intestinal %", "setting": "[3]; [8]", "result": ">100.00", "unit": "%"}, {"measurement": "Digestive Stability (%) Gastric %", "setting": "[3]; [9]", "result": "90.32 ± 4.41 ^b %"}, {"measurement": "Digestive Stability (%) Intestinal %", "setting": "[3]; [9]", "result": ">100.00 ^a %"}]}
{"smiles": "O=c1c(O[C@@H]2O[C@H](CO)[C@@H](O)[C@H](O)[C@H]2O)c(-c2ccc(O[C@@H]3O[C@H](CO)[C@@H](O)[C@H](O)[C@H]3O)c(O)c2)oc2cc(O)cc(O)c12", "note": "[Quercetin 3,4′-diglucoside]", "values": [{"measurement": "Papp (apical-to-basolateral)", "setting": "Caco-2 cell monolayer [4]", "result": 6.1, "unit": "×10⁻⁶ cm/s"}]}
{"smiles": "O=c1c(O)c(-c2ccc(O[C@@H]3O[C@H](CO)[C@@H](O)[C@H](O)[C@H]3O)c(O)c2)oc2cc(O[C@@H]3O[C@H](CO)[C@@H](O)[C@H](O)[C@H]3O)cc(O)c12", "note": "[Quercetin 7,4′-diglucoside]", "values": [{"measurement": "Papp (apical-to-basolateral)", "setting": "Caco-2 cell monolayer [4]", "result": 5.9, "unit": "×10⁻⁶ cm/s"}]}
{"smiles": "O=c1c(O)c(-c2ccc(O)c(O)c2)oc2cc(O)cc(O)c12", "note": "[Quercetin]", "values": [{"measurement": "detection in basolateral compartment", "setting": "Caco-2 cell monolayer [1]; [6]", "result": "not detected"}, {"measurement": "Papp A→B at 120 min, 60 µg/mL total polyphenols", "setting": "[2]", "result": 1.1, "unit": "×10⁻⁶ cm/s"}, {"measurement": "bioavailability at 60 min, 60 µg/mL total polyphenols", "setting": "[2]", "result": 0.6, "unit": "%"}, {"measurement": "recovery at 30 min, 60 μg/mL total polyphenols", "setting": "[2]", "result": 38, "unit": "%"}, {"measurement": "recovery at 120 min, 60 μg/mL total polyphenols", "setting": "[2]", "result": 7, "unit": "%"}, {"measurement": "maximum cellular accumulation", "setting": "Caco-2 cells; red onion peels extract, time not stated", "result": 1.468, "unit": "ng/µg protein"}, {"measurement": "Digestive Stability (%) Gastric %", "setting": "[3]; [8]", "result": "32.34 ± 3.97 ^a %"}, {"measurement": "Digestive Stability (%) Intestinal %", "setting": "[3]; [8]", "result": "15.37 ± 2.55 ^b %"}, {"measurement": "Digestive Stability (%) Gastric %", "setting": "[3]; [9]", "result": "3.44 ± 0.56 ^b %"}, {"measurement": "Digestive Stability (%) Gastric %", "setting": "[3]; [10]", "result": 3.44, "unit": "%"}, {"measurement": "Digestive Stability (%) Intestinal %", "setting": "[3]; [9]", "result": "15.64 ± 0.96 ^a %"}, {"measurement": "Digestive Stability (%) Intestinal %", "setting": "[3]; [10]", "result": 15.64, "unit": "%"}]}
{"smiles": "O=c1c(O)c(-c2ccc(O[C@@H]3O[C@H](CO)[C@@H](O)[C@H](O)[C@H]3O)c(O)c2)oc2cc(O)cc(O)c12", "note": "[Spiraeoside, quercetin-4′-O-glucoside]", "values": [{"measurement": "Papp A→B at 120 min, 30 µg/mL total polyphenols", "setting": "[2]", "result": 5.5, "unit": "×10⁻⁶ cm/s"}, {"measurement": "bioavailability at 90 min, 30 µg/mL total polyphenols", "setting": "[2]", "result": "~8", "unit": "%"}, {"measurement": "bioavailability at 120 min, 30 µg/mL total polyphenols", "setting": "[2]", "result": "~8", "unit": "%"}, {"measurement": "recovery at 30 min, 60 μg/mL total polyphenols", "setting": "[2]", "result": 78, "unit": "%"}, {"measurement": "recovery at 120 min, 60 μg/mL total polyphenols", "setting": "[2]", "result": 62, "unit": "%"}, {"measurement": "cellular accumulation", "setting": "Caco-2 cells; red onion peels extract, 90 min (maximum)", "result": 0.142, "unit": "ng/µg protein"}, {"measurement": "cellular accumulation", "setting": "Caco-2 cells; [7]", "result": 0.162, "unit": "ng/µg protein"}, {"measurement": "Digestive Stability (%) Gastric %", "setting": "[3]; [8]", "result": "99.51 ± 3.50 ^a %"}, {"measurement": "Digestive Stability (%) Intestinal %", "setting": "[3]; [8]", "result": "39.97 ± 6.96 ^b %"}, {"measurement": "Digestive Stability (%) Gastric %", "setting": "[3]; [9]", "result": "81.11 ± 6.54 ^a %"}, {"measurement": "Digestive Stability (%) Intestinal %", "setting": "[3]; [9]", "result": "36.76 ± 3.49 ^b %"}]}
{"smiles": "COc1cc(-c2oc3cc(O)cc(O)c3c(=O)c2O)ccc1O", "note": "[isorhamnetin]", "values": [{"measurement": "cellular accumulation", "setting": "Caco-2 cells; red onion peels extract, 120 min", "result": 0.040, "unit": "ng/µg protein"}]}
{"smiles": "O=C1c2c(O)cc(O)cc2OC(c2ccc(O)c(O)c2)C1O", "note": "(stereo not shown) [taxifolin]", "values": [{"measurement": "solubility", "setting": "[5]", "result": 0.1, "unit": "%"}]}
